25 compounds from ChEMBL document CHEMBL1142797, “2-Aminoquinazoline inhibitors of cyclin-dependent kinases” (Bioorg Med Chem Lett, 2005) can be followed below.

One may read the IC50 as the point on the concentration scale where inhibition reaches its midpoint. A high value points to weaker potency. A word on the logD: it is the decadic logarithm of the distribution of all forms, ionised or not, between an organic phase and buffer at a given pH. High values mean higher lipophilicity, low ones lower lipophilicity.

The nature of data set [1]: Inhibitory concentration against CDK2/ Cyclin A.
Data set [2] addresses Cyclin-dependent kinase 2/cyclin E1 (Homo sapiens, UniProt P24941). The experiment in a line: Inhibitory concentration against CDK2/ Cyclin E. The data set is classed as protein-complex assay.
For data set [3], the target named is Cyclin-dependent kinase 4/cyclin D1 (Homo sapiens, UniProt P11802). The experiment in a line: Inhibitory concentration against CDK4/ Cyclin D. The data set is classed as protein-complex assay.
Chain of Cyclin-dependent kinase 4/cyclin D1 (P11802 whole entry): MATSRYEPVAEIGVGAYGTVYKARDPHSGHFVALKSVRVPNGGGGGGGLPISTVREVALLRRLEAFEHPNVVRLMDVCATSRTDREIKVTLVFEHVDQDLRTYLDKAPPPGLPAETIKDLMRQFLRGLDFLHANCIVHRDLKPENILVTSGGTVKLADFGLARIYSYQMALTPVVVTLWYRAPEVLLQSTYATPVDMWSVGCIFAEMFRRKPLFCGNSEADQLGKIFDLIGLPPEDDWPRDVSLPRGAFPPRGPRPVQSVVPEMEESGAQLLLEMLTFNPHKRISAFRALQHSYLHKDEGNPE
Chain of Cyclin-dependent kinase 4/cyclin D1 (P24385 whole entry, further chain): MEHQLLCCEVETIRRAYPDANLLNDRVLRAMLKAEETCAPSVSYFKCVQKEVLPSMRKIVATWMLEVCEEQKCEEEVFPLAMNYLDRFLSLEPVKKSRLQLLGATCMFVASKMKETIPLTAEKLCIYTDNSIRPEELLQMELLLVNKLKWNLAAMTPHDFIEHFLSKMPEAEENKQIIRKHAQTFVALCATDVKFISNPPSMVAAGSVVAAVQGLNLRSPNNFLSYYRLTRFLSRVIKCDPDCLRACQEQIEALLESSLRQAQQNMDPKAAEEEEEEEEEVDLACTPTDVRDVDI
For data set [4], the target named is Cyclin-dependent kinase 1/cyclin B1 (Homo sapiens, UniProt P06493). The experiment in a line: Inhibitory concentration against CDK1/ Cyclin B. It counts as protein-complex assay.
Chain of Cyclin-dependent kinase 1/cyclin B1 (P06493 whole entry): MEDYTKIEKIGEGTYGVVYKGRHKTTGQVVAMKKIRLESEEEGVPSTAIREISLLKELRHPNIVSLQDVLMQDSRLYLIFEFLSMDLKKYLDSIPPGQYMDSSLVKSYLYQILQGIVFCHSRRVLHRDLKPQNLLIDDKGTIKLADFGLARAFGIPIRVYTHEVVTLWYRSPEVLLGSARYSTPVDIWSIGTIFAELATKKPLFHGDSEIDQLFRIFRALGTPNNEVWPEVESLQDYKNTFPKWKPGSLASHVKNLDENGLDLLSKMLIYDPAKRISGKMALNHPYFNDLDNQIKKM
Chain of Cyclin-dependent kinase 1/cyclin B1 (P14635 whole entry, further chain): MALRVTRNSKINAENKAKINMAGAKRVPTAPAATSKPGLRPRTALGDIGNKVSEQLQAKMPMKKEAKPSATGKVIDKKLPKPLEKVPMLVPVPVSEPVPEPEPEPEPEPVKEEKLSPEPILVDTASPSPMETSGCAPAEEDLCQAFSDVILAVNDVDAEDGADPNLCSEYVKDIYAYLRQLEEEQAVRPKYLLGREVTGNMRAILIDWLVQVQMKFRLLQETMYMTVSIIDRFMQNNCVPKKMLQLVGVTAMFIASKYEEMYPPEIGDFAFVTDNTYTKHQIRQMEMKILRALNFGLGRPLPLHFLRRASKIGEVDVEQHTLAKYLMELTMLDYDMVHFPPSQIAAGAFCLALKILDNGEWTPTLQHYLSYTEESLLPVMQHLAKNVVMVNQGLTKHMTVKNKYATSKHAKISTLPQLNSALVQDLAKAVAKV
Data set [5] can be described thus: Distribution coefficient at pH 7.4. The data set is classed as physicochemical. As to conditions: octanol/water.
For data set [6], the system named is HCT-116. The data set can be described thus: Antiproliferative activity against HCT116 cell lines of human. The data set is classed as functional, cell-based.

The structures appear in SMILES notation.

Consider `Oc1ccc2cnc(Nc3ccc(N4CCOCC4)cc3)nc2c1C1CCCC1`, for which the IC50 is 180 nM in data set [1], 635 nM in data set [2], 3 nM in data set [3] and 1940 nM in data set [4].

As for `COc1ccc2cnc(Nc3ccc(N4CCNCC4)cc3)nc2c1C1CCCC1`, the IC50 in data set [1] is 28 nM.

`CC(C)c1c(O)ccc2cnc(Nc3ccccc3)nc12` displayed an IC50 in data set [1] of 250 nM. This IC50 lies about 8.9-fold higher than the previous one.

For the compound `COc1cc(C)c2cnc(Nc3ccc(N4CCN(C(C)=O)CC4)cc3)nc2c1C1CCCC1`, the IC50 is greater than 5000 nM in data set [1], greater than 5000 nM in data set [2], 4130 nM in data set [3] and greater than 5000 nM in data set [4]. This compound also returned a logD in data set [5] of 3.77.

With `COc1ccc2cnc(Nc3ccc(N4CCC(N)C4)cc3)nc2c1C1CCCC1` (stereo unspecified), the IC50 was 203 nM in data set [1] and 775 nM in data set [2].

With `COc1ccc2cnc(Nc3ccc(N4CCCC4)cc3)nc2c1C(C)C`, the IC50 is 1600 nM in data set [1], greater than 5000 nM in data set [2] and greater than 5000 nM in data set [4].

`COc1ccc2cnc(Nc3ccc(N4CCN(C(C)=O)CC4)cc3)nc2c1C1CCCC1` yielded an IC50 in data set [4] greater than 5000 nM.

With `COc1ccc2cnc(Nc3ccc(N4CCOCC4)cc3)nc2c1C(C)C`, the half-inhibitory concentration (IC50) in data set [1] came out at 665 nM.

For the compound `COc1ccc2cnc(Nc3ccc(N4CCNCC4)c(F)c3)nc2c1C(C)C`, the IC50 in data set [1] was 141 nM; in data set [2], 655 nM; in data set [3], 7 nM; in data set [4] it was 743 nM.

Take `COc1ccc2cnc(Nc3ccc(N4CCNCC4)cc3)nc2c1C(C)C`: the IC50 in data set [1] turned out to be 185 nM.

In data set [1], `COc1ccc2cnc(Nc3ccc(N4CCNCC4)c(F)c3)nc2c1C1CCCC1` yielded a half-inhibitory concentration (IC50) of 62 nM. This IC50 is about 3-fold lower than that of the compound before.

With `Cc1cc(O)c(C2CCCC2)c2nc(Nc3ccc(N4CCNCC4)cc3)ncc12`, the IC50 in data set [1] was greater than 5000 nM; in data set [2], greater than 5000 nM; in data set [3] it was 20 nM; in data set [6], 100 nM; in data set [4] it was greater than 5000 nM. This compound also had a logD in data set [5] of 1.39.

Take `COc1ccc2cnc(Nc3ccc(N4CCCCC4)cc3)nc2c1C1CCCC1`: the 50% inhibitory concentration (IC50) in data set [1] is 384 nM; in data set [2], greater than 5000 nM; in data set [4], greater than 5000 nM.

As for `COc1ccc2cnc(Nc3ccccc3)nc2c1C1CCCC1`, the half-maximal inhibitory concentration (IC50) in data set [1] stood at 202 nM; in data set [2], 650 nM; in data set [3] it was 166 nM; in data set [4] it was 801 nM.

The compound `COc1ccc2cnc(Nc3ccc(N4CCC(N)C4)cc3)nc2c1C(C)C` (stereo unspecified) gave a half-maximal inhibitory concentration (IC50) in data set [1] of 296 nM.

As for `COc1cc(C)c2cnc(Nc3ccc(N4CCNCC4)cc3)nc2c1C1CCCC1`, the IC50 in data set [1] is greater than 5000 nM; in data set [2] it was greater than 5000 nM; in data set [3] it was 55 nM; in data set [4], greater than 5000 nM. The log distribution coefficient (logD) in data set [5] was determined as 2.32.

Compound `COc1ccc2cnc(Nc3ccccc3)nc2c1C(C)C` showed an IC50 in data set [1] of 253 nM.

Turning to `COc1ccc2cnc(Nc3ccc(N4CCN(C(=O)CN)CC4)cc3)nc2c1C1CCCC1`, in data set [1], half-maximal inhibition (IC50) was put at 95 nM.

`COc1ccc2cnc(Nc3ccc(N4CCN(C(=O)CN)CC4)cc3)nc2c1C(C)C` registered an IC50 in data set [1] of 191 nM.

Consider `Oc1ccc2cnc(Nc3ccc(N4CCNCC4)cc3)nc2c1C1CCCC1`, for which the IC50 in data set [1] was determined as 82 nM; in data set [2] it was 320 nM; in data set [3], 1 nM; in data set [4], 30 nM.

Consider `Cc1cc(=O)n(C2CCCC2)c2nc(Nc3ccc(N4CCNCC4)cc3)ncc12`, for which the logD in data set [5] was 0.63. In data set [4], this compound yielded an IC50 greater than 5000 nM.

Take `COc1ccc2cnc(Nc3ccc(N4CCCCC4)cc3)nc2c1C(C)C`: the figures for the IC50 in data set [1] and in data set [4] were 410 nM and greater than 5000 nM, respectively.

Consider `COc1ccc2cnc(Nc3ccc(N4CCCC4)cc3)nc2c1C1CCCC1`, for which the IC50 in data set [1] and in data set [4] was greater than 5000 nM in each case.

Turning to `COc1ccc2cnc(Nc3ccc(N4CCOCC4)cc3)nc2c1C1CCCC1`, the midpoint of inhibition in data set [1], the IC50, lay at 384 nM. In other words, the sub-micromolar range.

With `Oc1ccc2cnc(Nc3ccc(N4CCNCC4)c(F)c3)nc2c1C1CCCC1`, the IC50 in data set [1] is 112 nM; in data set [2], 270 nM; in data set [3] it was 1 nM; in data set [4], 761 nM.
